Patent US10183047B2, “Chromium-containing compositions in combination with Phyllanthus emblica and shilajit having synergistic effects for improving endothelial function and cardiovascular health” (Natreon, Inc., priority 2014, dated 2019)

The molecules below were run on endothelial function (assay: Reflection index (RI), salbutamol challenge test, metabolic syndrome subjects). Conditions: MS; 400 mcg.
Assay type: in vivo, human
From the text: A salbutamol (albuterol) challenge test employing digital volume plethysmography was used to assess endothelial function as reported by Chowienczyk et al., “Photoplethysmographic assessment of pulse wave reflection: blunted response to endothelium dependant beta 2-adrenergic vasodilation in type 2 diabetes mellitus,” J. Am. Coll. Cardiol. (1999 December) 34(7):2007-14; and Naidu, et al., “Comparison of two β2 adrenoceptor agonists by different routes of administration to assess human endothelial function,” Indian J. Pharmacol. (2007) 39:168-9. The patients were examined in supine position after 5 minutes of rest. A digital volume pulse (DVP) was obtained using a photo plethysmograph (Pulse Trace PCA2, PT200, Micro Medical, Gallingham, Kent, UK) transmitting infrared light at 940 nm, placed on the index finger of the right hand. The signal from the plethysmograph was digitized using a 12 bit analogue to digital converter with a sampling frequency of 100 Hz. DVP waveforms were recorded over 20 second period and the height of the late systolic/early diastolic portion of the DVP was expressed as a percentage of the amplitude of the DVP to yield the reflection index (RI), per the procedure described in detail by Millasseau et al., “Determination of age related increases in large artery stiffness by digital pulse contour analysis,” Clinical Science (2002) 103: 371-377. Three DVP recordings were taken, and measurements of reflection index (RI) were calculated and the mean value was determined. Patients were then administered 400 μg of salbutamol by inhalation. After 15 minutes three measurements of RI were obtained again and the difference in mean RI before and after administration of salbutamol was used for assessing endothelial function. A change of ≤6% in RI post-salbutamol was considered as endothelial dysfunction.
(§1) Patients included in the study, were of either gender, aged 30-68 years, having endothelial dysfunction defined as ≤6% change in reflection index (RI) on post salbutamol challenge test and central obesity as defined by The International Diabetes Federation guidelines, dated 2006, and any two of the following conditions:
(§2) After screening, all the eligible subjects were randomized to receive either one of the three treatments orally for duration of 12 weeks: group 1—one capsule of Crominex®3+ 200 mcg once daily; group 2—one capsule 400 mcg once daily; group 3—one capsule of Placebo once daily.
(§3) Subjects were reviewed for follow up at 4 weeks, 8 and 12 weeks of therapy. At each visit they were evaluated for efficacy and safety. Pharmacodynamic evaluation for endothelial function was conducted at baseline and end of treatment. Blood samples were collected for evaluation of biomarkers before and at end of treatment. Safety lab investigations for hematological, hepatic and renal biochemical parameters were conducted before and at the end of the study and also as and when required (in case of any adverse drug reaction (ADR)). Subjects were enquired for the presence of ADR and the same was recorded in the case report form. Compliance to therapy was assessed by pill count method.
(§4) Assessment of endothelial function, biomarkers, safety parameters and primary and secondary efficacy parameters and data analysis were performed as described under the study with type 2 diabetic subjects in Example 1.
(§5) When the results with Crominex® 3+ in the above two examples were highly significant, especially with the 400 mcg once daily dose in type 2 diabetics, two more clinical studies (EXAMPLES 3 & 4) were conducted at the same institute, following the same methodology as described earlier, on the individual components of Crominex® 3+, i.e., chromium chloride and Phyllanthus emblica+Shilajit, and other chromium supplements available in the market, i.e., chromium picolinate, chromium polynicotinate and chromium dinicocysteinate, in type 2 diabetics as well as in subjects with metabolic syndrome symptoms.

Compared with `O.O.O.O.O.O.[Cl][Cr]([Cl])[Cl]` [Chromium chloride, Chromium chloride (CrCl3.6H2O)], chromium dinicocysteinate is lower in RI: −0.1% for the first, −0.98% for the second.

Compared with chromium picolinate, chromium polynicotinate is higher in RI: −3.25% for the first, −1.51% for the second.

Same assay, conditions: metabolic syndrome subjects (Example 4); chromium products 400 mcg; after 12 weeks of treatment

With `O.O.O.O.O.O.[Cl][Cr]([Cl])[Cl]` [Chromium chloride, Chromium chloride (CrCl3.6H2O)] the “Absolute change in RI” value was −0.10 ± 1.34 #@ %.
With chromium dinicocysteinate the “Absolute change in RI” value was −0.98 ± 0.76 #@NS %.
For chromium picolinate, the “Absolute change in RI” value was −3.25 ± 0.98 #@NS %.
With chromium polynicotinate the “Absolute change in RI” value was −1.51 ± 1.78 #@NS %.

In the case of `O.O.O.O.O.O.[Cl][Cr]([Cl])[Cl]` [Chromium chloride, Chromium chloride (CrCl3.6H2O)], the “RI, % Post Tt” value is reported as −3.43 ± 1.49 NS %.

In the case of chromium dinicocysteinate, the “RI, % Post Tt” value is reported as −4.58 ± 0.89 @ %.
chromium polynicotinate was tested, and the “RI, % Post Tt” value was −3.85 ± 0.86 @ %.

In the case of chromium picolinate, the “RI, % Post Tt” value is reported as −6.45 ± 0.40 %.

Same assay, conditions: metabolic syndrome subjects (Example 4); chromium products 400 mcg; pre-treatment

`O.O.O.O.O.O.[Cl][Cr]([Cl])[Cl]` [Chromium chloride, Chromium chloride (CrCl3.6H2O)] was tested, and the “RI, % Pre Tt” value was −3.06 ± 1.98%.

chromium dinicocysteinate was tested, and the “RI, % Pre Tt” value was −3.55 ± 1.09 ^ %.
With chromium polynicotinate the “RI, % Pre Tt” value was −2.39 ± 2.18 ^ %.

These molecules were tested on Glycosylated Hemoglobin A1c (HbA1c) (assay: Glycosylated hemoglobin A1c, type 2 diabetics). Conditions: DM; 400 mcg; absolute change.
Assay type: in vivo, human
Protocol: The present clinical study is a prospective, randomized, double blind, placebo-controlled study. Patients of either sex, aged 30-65 years, fasting plasma glucose of 110-126 mg/dl, a glycosylated hemoglobin (HbA1c) between 6.5% and 8% and taking stable dose of anti-diabetic treatment (metformin 1500-2000 mg/day) for the past 8 weeks prior to the screening visit; and having endothelial dysfunction defined as ≤6% change in reflection index (RI) on post salbutamol challenge test were included in the study. Patients with severe uncontrolled hyperglyceamia, uncontrolled hypertension, cardiac arrhythmia, impaired hepatic or renal function, history of malignancy or stroke, smoking, chronic alcoholism, any other serious disease requiring active treatment and treatment with any other herbal supplements, were excluded from the study.
After screening, all the eligible subjects were randomized to receive either one of the three treatments orally for duration of 12 weeks—Group1—one capsule of Crominex®3+, 200 mcg once daily, Group 2—one capsule Crominex®3+, 400 mcg once daily; Group 3—one capsule of placebo once daily.
as §3, with “Subjects were required for follow” for “Subjects were reviewed for follow”, “up at 4, 8 and” for “up at 4 weeks, 8 and”, “conducted at every visit. Blood samples” for “conducted at baseline and end of treatment. Blood samples”, “and at the end of” for “and at end of”, “drug reaction (ADR). Subjects were” for “drug reaction (ADR)). Subjects were”
All the subjects had undergone complete physical examination, safety lab evaluations at baseline and at the end of the treatment. Samples were collected after an overnight fast of 12 hrs after the last dose of medication for determination of hemoglobin, glycosylated hemoglobin (HbA1c), blood urea, serum creatinine, liver function, lipid profile (Total cholesterol, High density lipoprotein cholesterol (HDL-C), low density lipoprotein cholesterol (LDL-C) using appropriate standard techniques.
as §5

Going from `O.O.O.O.O.O.[Cl][Cr]([Cl])[Cl]` [Chromium chloride, Chromium chloride (CrCl3.6H2O)] to chromium dinicocysteinate, the “HbA1c (Abs.)” value rises from −0.02 to −0.01.

First: chromium picolinate
Second: chromium polynicotinate
The “HbA1c (Abs.)” value of the first is lower: −0.02 for the first, −0.01 for the second.

Same assay, conditions: type 2 diabetics (Example 3); chromium products 400 mcg; after 12 weeks treatment

`O.O.O.O.O.O.[Cl][Cr]([Cl])[Cl]` [Chromium chloride, Chromium chloride (CrCl3.6H2O)] was tested, and the “Absolute change in HbA1c” value was −0.02 ± 0.10 #NS %.
chromium dinicocysteinate was tested, and the “Absolute change in HbA1c” value was −0.01 ± 0.07 #NS %.
For chromium picolinate, the “Absolute change in HbA1c” value was −0.02 ± 0.08 #NS %.
chromium polynicotinate was tested, and the “Absolute change in HbA1c” value was 0.01 ± 0.10 #NS %.

Same assay, conditions: type 2 diabetics (Example 3); chromium products 400 mcg; post-treatment, 12 weeks

`O.O.O.O.O.O.[Cl][Cr]([Cl])[Cl]` [Chromium chloride, Chromium chloride (CrCl3.6H2O)] and chromium dinicocysteinate are within error of each other in “HbA1c Post Tt” value: 6.89 ± 0.16 NS % for the first, 7.10 ± 0.08 NS % for the second.

chromium picolinate and chromium polynicotinate are within error of each other in “HbA1c Post Tt” value: 7.03 ± 0.15 NS % for the first, 7.09 ± 0.13 NS % for the second.

Same assay, conditions: type 2 diabetics (Example 3); chromium products 400 mcg; pre-treatment

`O.O.O.O.O.O.[Cl][Cr]([Cl])[Cl]` [Chromium chloride, Chromium chloride (CrCl3.6H2O)] and chromium dinicocysteinate are within error of each other in “HbA1c Pre Tt” value: 6.91 ± 0.16% for the first, 7.11 ± 0.08% for the second.

chromium picolinate and chromium polynicotinate are within error of each other in “HbA1c Pre Tt” value: 7.05 ± 0.11% for the first, 7.08 ± 0.08% for the second.

What follows are molecules tested on high sensitivity C-reactive protein (hsCRP) (assay: hsCRP by ELISA, metabolic syndrome subjects). Conditions: MS; 400 mcg.
Assay type: in vivo, human
Set-up: hsCRP Pre Tt / hsCRP Post Tt: unit not given here
Protocol: (§6) Nitric oxide, MDA, Glutathione and levels were estimated spectrophotometrically as follows. Malondialdehyde (MDA) levels were determined as described in Vidyasagar, et al., “Oxidative stress and antioxidant status in acute organophosphorous insecticide poisoning,” Indian J. Pharmacol. (April 2004) 36(2): 76-79. Glutathione levels were determined as described in G. L. Ellman, Arch. Biochem. Biophys. (1959) 82: 70-77 (original determination). Nitric oxide levels were estimated spectrophotometrically as described in Miranda, et al., “A Rapid, Simple Spectrophotometric Method for Simultaneous Detection of Nitrate and Nitrite,” NITRIC OXIDE: Biology and Chemistry (2001) Vol. 5, No. 1, pp. 62-71. hsCRP (high sensitivity C-reactive protein) was determined by ELISA method.
Patients included in the study, were of either gender, aged 30-68 years, having endothelial dysfunction defined as ≤6% change in reflection index (RI) on post salbutamol challenge test and central obesity as defined by The International Diabetes Federation guidelines, dated 2006, and any two of the following conditions: […]
as §3, §4, §5

Compared with `O.O.O.O.O.O.[Cl][Cr]([Cl])[Cl]` [Chromium chloride, Chromium chloride (CrCl3.6H2O)], chromium dinicocysteinate is lower in hsCRP: −11% for the first, −13.76% for the second.

Going from chromium picolinate to chromium polynicotinate, the hsCRP rises from −19.45% to −12.34%.

Same assay, conditions: metabolic syndrome subjects (Example 4); chromium products 400 mcg; after 12 weeks of treatment

chromium dinicocysteinate and chromium picolinate are within error of each other in “hsCRP Post Tt” value: 2.24 ± 0.49 for the first, 2.15 ± 0.40 for the second.

For chromium polynicotinate, the “hsCRP Post Tt” value was 2.42 ± 0.54.

Same assay, conditions: metabolic syndrome subjects (Example 4); chromium products 400 mcg; after 12 weeks treatment

`O.O.O.O.O.O.[Cl][Cr]([Cl])[Cl]` [Chromium chloride, Chromium chloride (CrCl3.6H2O)] and chromium dinicocysteinate are within error of each other in “Mean percentage change in hsCRP” value: −10.99 ± 3.29% for the first, −13.76 ± 4.64% for the second.

Going from chromium picolinate to chromium polynicotinate, the “Mean percentage change in hsCRP” value rises from −19.45 ± 2.98% to −12.34 ± 2.16%.

Same assay, conditions: metabolic syndrome subjects (Example 4); chromium products 400 mcg; pre-treatment

chromium dinicocysteinate and chromium picolinate are within error of each other in “hsCRP Pre Tt” value: 2.58 ± 0.48 for the first, 2.67 ± 0.44 for the second.

For chromium polynicotinate, the “hsCRP Pre Tt” value was 2.76 ± 0.58.

What follows are molecules tested on glutathione (GSH) (assay: Glutathione level, metabolic syndrome subjects). Conditions: MS; 400 mcg.
Assay type: in vivo, human
Protocol: as §6, §1, §2, §3, §4, §5

Compared with `O.O.O.O.O.O.[Cl][Cr]([Cl])[Cl]` [Chromium chloride, Chromium chloride (CrCl3.6H2O)], chromium dinicocysteinate is higher in GSH: 4.2% for the first, 5.4% for the second.

Compared with chromium picolinate, chromium polynicotinate is lower in GSH: 7.1% for the first, 5.1% for the second.

Same assay, conditions: metabolic syndrome subjects (Example 4); chromium products 400 mcg; after 12 weeks of treatment

`O.O.O.O.O.O.[Cl][Cr]([Cl])[Cl]` [Chromium chloride, Chromium chloride (CrCl3.6H2O)] and chromium dinicocysteinate are within error of each other in “GSH Post Tt” value: 542.56 ± 46.51 μM/L for the first, 558.38 ± 33.94 μM/L for the second.

chromium picolinate and chromium polynicotinate are within error of each other in “GSH Post Tt” value: 550.63 ± 26.21 μM/L for the first, 549.43 ± 20.18 μM/L for the second.

Same assay, conditions: metabolic syndrome subjects (Example 4); chromium products 400 mcg; after 12 weeks treatment

`O.O.O.O.O.O.[Cl][Cr]([Cl])[Cl]` [Chromium chloride, Chromium chloride (CrCl3.6H2O)] and chromium dinicocysteinate are within error of each other in “Mean percentage change in GSH” value: 4.17 ± 1.80% for the first, 5.41 ± 1.38% for the second.

chromium picolinate and chromium polynicotinate are within error of each other in “Mean percentage change in GSH” value: 7.07 ± 1.95% for the first, 5.09 ± 1.36% for the second.

Same assay, conditions: metabolic syndrome subjects (Example 4); chromium products 400 mcg; pre-treatment

`O.O.O.O.O.O.[Cl][Cr]([Cl])[Cl]` [Chromium chloride, Chromium chloride (CrCl3.6H2O)] and chromium dinicocysteinate are within error of each other in “GSH Pre Tt” value: 521.35 ± 49.06 μM/L for the first, 529.89 ± 33.97 μM/L for the second.

chromium picolinate and chromium polynicotinate are within error of each other in “GSH Pre Tt” value: 514.35 ± 25.09 μM/L for the first, 522.92 ± 20.68 μM/L for the second.
